Source: patent US10246453B2, “Benzenesulfonamide compounds and their use as therapeutic agents” (Xenon Pharmaceuticals Inc., priority 2016, dated 2019)
Structures can show the parent of a compound that is named as a salt. Where two headings read alike, the source gives them in different places.

What was measured:
NaV1.6 [1] = molecular target: T1, NaV1.6 (Homo sapiens (Human), UniProt Q9UQD0); assay: Electrophysiological Assay (EP), patch voltage clamp, NaV1.6; format: cell-based; settings: HEK-293 cells, whole-cell patch clamp, inactivated state; arithmetic mean
T1 sequence (Q9UQD0 whole entry): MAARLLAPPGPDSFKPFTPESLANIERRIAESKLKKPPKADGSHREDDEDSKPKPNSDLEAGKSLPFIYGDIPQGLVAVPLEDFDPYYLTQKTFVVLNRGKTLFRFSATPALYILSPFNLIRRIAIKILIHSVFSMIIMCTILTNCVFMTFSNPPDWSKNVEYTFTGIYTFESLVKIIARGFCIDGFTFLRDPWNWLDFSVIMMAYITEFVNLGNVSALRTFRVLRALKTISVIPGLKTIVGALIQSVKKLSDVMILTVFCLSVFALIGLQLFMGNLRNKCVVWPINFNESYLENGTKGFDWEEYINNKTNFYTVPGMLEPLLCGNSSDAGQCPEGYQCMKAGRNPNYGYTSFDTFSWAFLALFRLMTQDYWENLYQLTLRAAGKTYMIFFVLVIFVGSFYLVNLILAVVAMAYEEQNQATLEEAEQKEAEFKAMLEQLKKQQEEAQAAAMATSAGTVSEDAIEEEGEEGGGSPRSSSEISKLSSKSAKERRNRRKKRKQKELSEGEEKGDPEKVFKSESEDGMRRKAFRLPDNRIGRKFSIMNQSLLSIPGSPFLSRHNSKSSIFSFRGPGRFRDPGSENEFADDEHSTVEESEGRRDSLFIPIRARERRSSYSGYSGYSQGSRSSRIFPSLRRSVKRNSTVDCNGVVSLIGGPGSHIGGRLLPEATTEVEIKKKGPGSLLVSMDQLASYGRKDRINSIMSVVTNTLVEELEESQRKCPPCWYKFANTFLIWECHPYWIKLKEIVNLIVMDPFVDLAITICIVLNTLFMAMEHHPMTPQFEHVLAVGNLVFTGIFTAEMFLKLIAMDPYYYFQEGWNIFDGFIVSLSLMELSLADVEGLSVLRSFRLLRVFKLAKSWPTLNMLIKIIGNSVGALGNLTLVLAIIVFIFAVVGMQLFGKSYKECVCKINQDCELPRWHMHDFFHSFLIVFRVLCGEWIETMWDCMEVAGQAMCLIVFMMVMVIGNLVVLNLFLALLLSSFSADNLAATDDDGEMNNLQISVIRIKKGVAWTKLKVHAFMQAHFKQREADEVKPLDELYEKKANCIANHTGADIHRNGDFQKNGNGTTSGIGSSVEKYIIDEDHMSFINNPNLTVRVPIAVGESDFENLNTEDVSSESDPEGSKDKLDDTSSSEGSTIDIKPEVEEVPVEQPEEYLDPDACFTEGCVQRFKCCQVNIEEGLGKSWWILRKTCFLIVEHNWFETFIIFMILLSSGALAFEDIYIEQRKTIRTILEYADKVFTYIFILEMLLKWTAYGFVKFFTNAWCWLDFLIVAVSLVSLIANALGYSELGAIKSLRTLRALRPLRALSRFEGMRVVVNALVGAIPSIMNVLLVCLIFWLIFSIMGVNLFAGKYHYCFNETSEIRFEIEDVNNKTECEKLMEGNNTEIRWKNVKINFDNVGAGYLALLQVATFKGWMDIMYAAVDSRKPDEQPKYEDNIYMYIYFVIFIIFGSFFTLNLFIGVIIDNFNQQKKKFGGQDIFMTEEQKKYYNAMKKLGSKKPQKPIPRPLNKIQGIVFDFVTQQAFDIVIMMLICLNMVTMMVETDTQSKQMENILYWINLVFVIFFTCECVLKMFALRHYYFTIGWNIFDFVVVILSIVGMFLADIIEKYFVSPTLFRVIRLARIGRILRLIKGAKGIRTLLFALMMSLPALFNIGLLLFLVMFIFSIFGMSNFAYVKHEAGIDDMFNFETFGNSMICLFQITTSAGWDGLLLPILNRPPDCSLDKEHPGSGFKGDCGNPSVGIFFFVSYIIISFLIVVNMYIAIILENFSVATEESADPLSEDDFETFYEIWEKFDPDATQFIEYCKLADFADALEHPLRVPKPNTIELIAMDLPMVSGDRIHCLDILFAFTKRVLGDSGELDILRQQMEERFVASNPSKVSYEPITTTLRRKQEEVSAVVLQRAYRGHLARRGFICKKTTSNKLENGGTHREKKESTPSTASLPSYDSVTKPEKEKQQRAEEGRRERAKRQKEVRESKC

NaV1.5 [2] = molecular target: T2, NaV1.5 (Homo sapiens (Human), UniProt Q14524); assay: Sodium Influx Assay (Flux), NaV1.5; settings: read-out: Flux NaV1.5 IC50; Trex HEK293 cells, ANG2 dye; arithmetic mean
T2 sequence (Q14524 other isoform, or with tags, fused parts or gaps): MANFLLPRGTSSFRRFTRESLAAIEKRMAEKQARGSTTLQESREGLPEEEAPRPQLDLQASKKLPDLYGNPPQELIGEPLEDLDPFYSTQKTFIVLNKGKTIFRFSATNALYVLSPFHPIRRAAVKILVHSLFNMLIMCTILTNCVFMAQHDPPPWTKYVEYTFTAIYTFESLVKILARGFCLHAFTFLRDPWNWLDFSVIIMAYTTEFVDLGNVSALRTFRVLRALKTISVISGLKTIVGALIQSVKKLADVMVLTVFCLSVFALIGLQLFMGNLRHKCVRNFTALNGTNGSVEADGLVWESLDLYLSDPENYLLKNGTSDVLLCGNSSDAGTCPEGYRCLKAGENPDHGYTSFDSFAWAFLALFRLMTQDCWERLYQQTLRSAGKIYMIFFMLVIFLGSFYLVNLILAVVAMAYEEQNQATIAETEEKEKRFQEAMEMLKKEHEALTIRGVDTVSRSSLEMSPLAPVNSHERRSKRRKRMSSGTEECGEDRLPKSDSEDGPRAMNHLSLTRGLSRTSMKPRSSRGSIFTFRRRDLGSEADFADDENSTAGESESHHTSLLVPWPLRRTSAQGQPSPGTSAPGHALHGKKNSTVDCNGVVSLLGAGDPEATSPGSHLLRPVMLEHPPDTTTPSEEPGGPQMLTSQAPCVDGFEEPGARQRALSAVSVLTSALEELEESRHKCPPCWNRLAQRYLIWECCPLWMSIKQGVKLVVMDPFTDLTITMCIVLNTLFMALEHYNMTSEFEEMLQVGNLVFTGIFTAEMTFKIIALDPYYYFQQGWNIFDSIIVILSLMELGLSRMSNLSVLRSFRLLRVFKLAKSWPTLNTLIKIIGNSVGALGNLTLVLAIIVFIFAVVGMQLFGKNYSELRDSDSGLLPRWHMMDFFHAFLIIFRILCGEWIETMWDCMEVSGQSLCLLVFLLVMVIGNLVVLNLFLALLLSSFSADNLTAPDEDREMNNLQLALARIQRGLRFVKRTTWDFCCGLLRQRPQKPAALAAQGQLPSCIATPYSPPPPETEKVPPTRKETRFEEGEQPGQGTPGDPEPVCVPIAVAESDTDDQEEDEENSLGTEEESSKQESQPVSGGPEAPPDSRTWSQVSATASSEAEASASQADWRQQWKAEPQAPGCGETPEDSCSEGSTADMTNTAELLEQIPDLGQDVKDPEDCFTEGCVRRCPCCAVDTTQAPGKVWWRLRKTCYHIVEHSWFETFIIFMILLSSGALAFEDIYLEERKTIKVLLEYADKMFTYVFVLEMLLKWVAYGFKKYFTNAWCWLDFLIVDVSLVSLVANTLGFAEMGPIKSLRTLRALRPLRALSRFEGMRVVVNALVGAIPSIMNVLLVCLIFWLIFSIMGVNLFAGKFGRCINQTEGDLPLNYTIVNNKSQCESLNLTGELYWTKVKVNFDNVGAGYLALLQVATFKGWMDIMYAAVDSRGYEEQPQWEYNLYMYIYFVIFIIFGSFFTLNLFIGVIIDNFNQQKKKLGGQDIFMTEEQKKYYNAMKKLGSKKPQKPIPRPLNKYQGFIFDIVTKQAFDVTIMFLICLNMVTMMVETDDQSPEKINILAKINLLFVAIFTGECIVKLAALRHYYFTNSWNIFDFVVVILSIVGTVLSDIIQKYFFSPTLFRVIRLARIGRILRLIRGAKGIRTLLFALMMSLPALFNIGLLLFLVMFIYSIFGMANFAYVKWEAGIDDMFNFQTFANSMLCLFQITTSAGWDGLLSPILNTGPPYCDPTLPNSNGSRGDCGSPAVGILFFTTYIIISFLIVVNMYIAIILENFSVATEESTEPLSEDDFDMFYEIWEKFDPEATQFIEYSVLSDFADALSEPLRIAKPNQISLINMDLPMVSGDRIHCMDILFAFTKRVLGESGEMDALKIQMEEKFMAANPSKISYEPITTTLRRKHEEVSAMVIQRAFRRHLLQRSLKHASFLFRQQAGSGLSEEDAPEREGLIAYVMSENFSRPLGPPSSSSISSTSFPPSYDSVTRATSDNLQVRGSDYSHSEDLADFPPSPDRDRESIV

NaV1.1 [3] = molecular target: T3, NaV1.1 (Homo sapiens (Human), UniProt P35498); assay: Sodium Influx Assay (Flux), NaV1.1; format: cell-based; settings: Trex HEK293 cells, ANG2 dye; arithmetic mean
NaV1.6 [4] = molecular target: T1, NaV1.6; assay: Sodium Influx Assay (Flux), NaV1.6
NaV1.5 [5] = molecular target: T2, NaV1.5; assay: Electrophysiological Assay (EP), patch voltage clamp, NaV1.5; format: cell-based; settings: HEK-293 cells, whole-cell patch clamp, inactivated state; arithmetic mean
Description: Sodium currents were measured using the patch clamp technique in the whole-cell configuration using either a PatchXpress automated voltage clamp or manually using an Axopatch 200B (Axon Instruments) or Model 2400 (A-M systems) amplifier.
In some studies, the external sodium was reduced by equimolar replacement with choline. […] All recordings were performed at ambient temperature in a bath chamber with a volume of 150 μL. Control sodium currents were measured in 0.5% DMSO. Controls and representative compounds of the invention were applied to the recording chamber through a 4-pinch or 8-pinch valve bath perfusion system manufactured by ALA Scientific Instruments.
Series resistance compensation was applied (60-80%). […] All statistics in this study are given as mean±SD.
The membrane potential was maintained at a voltage where inactivation of the channel is complete. The voltage is then stepped back to a very negative (Vhold=−150 mV) voltage for 20 ms and then a test pulse is applied to quantify the compound block. […] The percent decrease in sodium current following wash-on of compound was taken as the percent block of sodium channels.

NaV1.1 [6] = molecular target: T3, NaV1.1; assay: Electrophysiological Assay (EP), patch voltage clamp, NaV1.1; format: cell-based; settings: HEK-293 cells, whole-cell patch clamp, inactivated state; arithmetic mean
NaV1.5 [7] = molecular target: T2, NaV1.5
NaV1.5 [8] = molecular target: T2, NaV1.5; assay: cell-based
[9] = read-out: Flux NaV1.6 IC50, Trex HEK293 cells, ANG2 dye, arithmetic mean

| Compound | IC50 (NaV1.6 [1]) [µM] | IC50 (NaV1.5 [2]) [µM] | IC50 (NaV1.1 [3]) [µM] | IC50 (NaV1.6 [4]; [9]) [µM] | IC50 (NaV1.5 [5]) [µM] | IC50 (NaV1.1 [6]) [µM] | IC50 (NaV1.5 [7]) [µM] | IC50 (NaV1.5 [8]) [µM] | IC50 (NaV1.6 [4]) [µM] |
| --- | --- | --- | --- | --- | --- | --- | --- | --- | --- |
| CN(c1ccc(S(=O)(=O)Nc2ncns2)cc1Cl)[C@H]1CCN(Cc2ccccc2)C1 [Example 29, (S)-4-((1-benzylpyrrolidin-3-yl)(methyl)amino)-3-chloro-N-(1,2,4-thiadiazol-5-yl)benzenesulfonamide hydrochloride salt] | 0.06 | 29.5 | > 30 | 0.244 | > 10 | > 10 |  |  |  |
| CN(c1cc(F)c(S(=O)(=O)Nc2nccs2)cc1Cl)C1CCN(Cc2ccccc2)CC1 [Example 53, 4-((1-benzylpiperidin-4-yl)(methyl)amino)-5-chloro-2-fluoro-N-(thiazol-2-yl)benzenesulfonamide] |  |  | 7.41 | 0.601 |  |  | 24.5 |  |  |
| Cc1cc(S(=O)(=O)Nc2cscn2)c(F)cc1N(C)C1CCN([C@H](C)c2ccccc2)CC1 [Example 281, (R)-2-fluoro-5-methyl-4-(methyl(1-(1-phenylethyl)piperidin-4-yl)amino)-N-(thiazol-4-yl)benzenesulfonamide 2,2,2-trifluoroacetate] |  |  | 14.6 | 0.021 |  |  | 13.1 |  |  |
| CN(c1ccc(S(=O)(=O)Nc2cscn2)cc1Cl)[C@H]1CCN(Cc2cc(Cl)ccc2F)C1 [Example 254, (S)-3-chloro-4-((1-(5-chloro-2-fluorobenzyl)pyrrolidin-3-yl)(methyl)amino)-N-(thiazol-4-yl)benzenesulfonamide formate] |  | 0.962 | 2.32 | 1.16 | 17 |  |  |  |  |
| Cc1cccc(CN2CC[C@H](N(C)c3cc(F)c(S(=O)(=O)Nc4ncns4)c(F)c3C)C2)n1 [Example 296, 2,2,2-trifluoroacetate] | 0.002 |  | > 30 | 0.01 |  |  |  | > 30 |  |
| Cc1c(OC2(C)CCN(Cc3ccccc3)C2)cc(F)c(S(=O)(=O)Nc2nccs2)c1F (racemic) [Example 228, rac-4-((1-benzyl-3-methylpyrrolidin-3-yl)oxy)-2,6-difluoro-3-methyl-N-(thiazol-2-yl)benzenesulfonamide 2,2,2-trifluoroacetate] |  |  | 5.27 |  |  |  |  | 23.1 | 0.031 |
| C[C@@H](c1ccccc1)N1CCC(Oc2ccc(S(=O)(=O)Nc3nccs3)cc2Cl)CC1 [Example 58, (S)-3-chloro-4-((1-(1-phenylethyl)piperidin-4-yl)oxy)-N-(thiazol-2-yl)benzenesulfonamide 2,2,2-trifluoroacetate] | 0.093 |  |  |  |  |  |  | 5.58 | 0.402 |
| CN(c1cc(F)c(S(=O)(=O)Nc2cscn2)cc1Cl)[C@H]1CCN(Cc2ccccc2)C1 [Example 38, (S)-4-((1-benzylpyrrolidin-3-yl)(methyl)amino)-5-chloro-2-fluoro-N-(thiazol-4-yl)benzenesulfonamide 2,2,2-trifluoroacetate] | 0.803 | 26.3 | 17.9 | 1.94 | > 30 | > 10 |  |  |  |
| O=S(=O)(Nc1cscn1)c1ccc(O[C@@H]2C[C@H]3CC[C@@H](C2)N3Cc2ccc(F)c(Cl)c2)c(Cl)c1 [Example 319, 3-chloro-4-(((1R,3s,5S)-8-(3-chloro-4-fluorobenzyl)-8-azabicyclo[3.2.1]octan-3-yl)oxy)-N-(thiazol-4-yl)benzenesulfonamide formate] |  |  | 3.69 | 3.32 |  |  | 2.48 |  |  |
| C[C@H](c1cc(C2CC2)ccc1F)N1CCC(Oc2ccc(S(=O)(=O)Nc3cscn3)cc2Cl)CC1 (stereo in doubt) [Example 320] |  |  | 4.25 |  |  |  |  | 4.74 | 3.24 |
| COc1cccnc1CN1CC[C@H](N(C)c2cc(F)c(S(=O)(=O)Nc3cscn3)cc2Cl)C1 [Example 176, (S)-5-chloro-2-fluoro-4-((1-((3-methoxypyridin-2-yl)methyl)pyrrolidin-3-yl)(methyl)amino)-N-(thiazol-4-yl)benzene-sulfonamide formate] |  |  | > 30 |  |  |  |  | > 30 | 0.74 |
| CN(c1cc(F)c(S(=O)(=O)Nc2cscn2)cc1Cl)[C@H]1CCN(Cc2cnn(Cc3ccccc3)c2)C1 [Example 165, (S)-4-((1-((1-benzyl-1H-pyrazol-4-yl)methyl)pyrrolidin-3-yl)(methyl)amino)-5-chloro-2-fluoro-N-(thiazol-4-yl)benzene-sulfonamide formate] |  |  | 4.61 |  |  |  |  | 6.97 | 3.34 |
| O=S(=O)(Nc1cscn1)c1ccc(O[C@@H]2C[C@H]3CC[C@@H](C2)N3Cc2cc(Cl)ccc2F)c(Cl)c1 [Example 316, 3-chloro-4-(((1R,3s,5S)-8-(5-chloro-2-fluorobenzyl)-8-azabicyclo[3.2.1]octan-3-yl)oxy)-N-(thiazol-4-yl)benzenesulfonamide formate] |  |  | 2.8 | 3.9 |  |  | 5.09 |  |  |
| Cc1c(N(C)[C@H]2CCN(Cc3ccccc3)C2)cc(F)c(S(=O)(=O)Nc2cccc(F)n2)c1F [Example 298, (S)-4-((1-benzylpyrrolidin-3-yl)(methyl)amino)-2,6-difluoro-N-(6-fluoropyridin-2-yl)-3-methylbenzenesulfonamide formate] | 0.043 | > 30 | 26 | 0.079 | > 10 | > 10 |  |  |  |
| O=S(=O)(Nc1nccs1)c1cc(Cl)c(O[C@@H]2C[C@H]3CC[C@@H](C2)N3Cc2ccccc2)cc1F [Example 17, 4-(((1R,3s,5S)-8-benzyl-8-azabicyclo[3.2.1]octan-3-yl)oxy)-5-chloro-2-fluoro-N-(thiazol-2-yl)benzenesulfonamide] | 0.155 |  | > 30 | 0.392 |  | > 10 | > 30 |  |  |
| Cc1cccc(CN2CC[C@H](N(C)c3cc(F)c(S(=O)(=O)Nc4ncns4)c(F)c3Cl)C2)n1 [Example 297, (S)-3-chloro-2,6-difluoro-4-(methyl (1-((6-methylpyridin-2-yl)methyl)pyrrolidin-3-yl)amino)-N-(1,2,4-thiadiazol-5-yl)benzenesulfonamide 2,2,2-trifluoroacetate] | 0.012 |  | > 30 |  |  |  |  | > 30 | 0.062 |
| Cc1c(N(C)[C@H]2CCN(Cc3ccccc3)C2)cc(F)c(S(=O)(=O)Nc2cscn2)c1F [Example 103, (S)-4-((1-benzylpyrrolidin-3-yl)(methyl)amino)-2,6-difluoro-3-methyl-N-(thiazol-4-yl)benzenesulfonamide 2,2,2-trifluoroacetate] | 0.017 | 28.2 | 28.5 | 0.061 | > 10 | 40.9 |  |  |  |
| O=S(=O)(Nc1nccs1)c1ccc(N[C@@H]2CCN(Cc3ccccc3F)C2)c(Cl)c1 [Example 71, (R)-3-chloro-4-((1-(2-fluorobenzyl)pyrrolidin-3-yl)amino)-N-(thiazol-2-yl)benzenesulfonamide] |  | 9.27 | 3.35 | 1.26 | 0.863 |  |  |  |  |
| CN(c1ccc(S(=O)(=O)Nc2ncns2)cc1Cl)[C@H]1CCN(Cc2cc(F)cc(F)c2)C1 [Example 327, (S)-3-chloro-4-((1-(3,5-difluorobenzyl)pyrrolidin-3-yl)(methyl)amino)-N-(1,2,4-thiadiazol-5-yl)benzenesulfonamide formate] |  |  | 17.3 |  |  |  |  | > 30 | 1.04 |
| C[C@H](c1ccccc1)N1CCC(N(C)c2cc(F)c(S(=O)(=O)Nc3cscn3)cc2Cl)CC1 [Example 280, (R)-5-chloro-2-fluoro-4-(methyl(1-(1-phenylethyl)piperidin-4-yl)amino)-N-(thiazol-4-yl)benzenesulfonamide formate] |  |  | 17.4 | 0.228 |  |  | 27.1 |  |  |
| CN(c1cc(F)c(S(=O)(=O)Nc2cscn2)cc1Cl)[C@H]1CCN(Cc2ccc3[nH]ccc3c2)C1 [Example 190, (S)-4-((1-((1H-indol-5-yl)methyl)pyrrolidin-3-yl)(methyl)amino)-5-chloro-2-fluoro-N-(thiazol-4-yl)benzene-sulfonamide formate] |  |  | 5.17 |  |  |  |  | 8.25 | 2.33 |
| O=S(=O)(Nc1cscn1)c1ccc(O[C@@H]2C[C@H]3CC[C@@H](C2)N3Cc2ccccc2)c(Cl)c1 [Example 318, 4-(((1R,3s,5S)-8-benzyl-8-azabicyclo[3.2.1]octan-3-yl)oxy)-3-chloro-N-(thiazol-4-yl)benzenesulfonamide] | 1.15 |  | 13.8 | 5.46 |  | > 10 | 17.4 |  |  |
